Test system: SYO-1 complex spheroid growth, percent test/control
Test: Anticancer human tumor SYO-1 cell line growth inhibition [Asc];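 also: compound exposure lasted 7 days after spheroids grew 3 days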;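 as to viability, T/C: 100% = DMSO vehicle control viability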
Details: for IC50: curve of first compound; for viability, T/C: stronger effect = lower value; active = viability on the fitted dose curve at most 10% of control; inactive = the rest
In short: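 Stromal components (HUVEC and hMSC) are co-assembled with the cancer cells into multicellular spheroids. Drugs are then added singly or paired, at concentrations falling by half-log increments from a clinically achievable maximum, capped at 10 microM without known Cmax.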

[1] = second compound 0.0316 µM, first compound 0.0316 µM
[2] = second compound 0.0316 µM, first compound 0.1 µM
[3] = second compound 0.0316 µM, first compound 0.316 µM
[4] = second compound 0.0316 µM, first compound 1 µM
[5] = second compound 0.1 µM, first compound 0.0316 µM
[6] = second compound 0.1 µM, first compound 0.1 µM
[7] = second compound 0.1 µM, first compound 0.316 µM
[8] = second compound 0.1 µM, first compound 1 µM
[9] = second compound 0.316 µM, first compound 0.0316 µM
[10] = second compound 0.316 µM, first compound 0.1 µM
[11] = second compound 0.316 µM, first compound 0.316 µM
[12] = second compound 0.316 µM, first compound 1 µM
[13] = second compound 1 µM, first compound 0.0316 µM
[14] = second compound 1 µM, first compound 0.1 µM
[15] = second compound 1 µM, first compound 0.316 µM
[16] = second compound 1 µM, first compound 1 µM
[17] = second compound 3.16 µM, first compound 0.0316 µM
[18] = second compound 3.16 µM, first compound 0.1 µM
[19] = second compound 3.16 µM, first compound 0.316 µM
[20] = second compound 3.16 µM, first compound 1 µM
[21] = second compound 10 µM, first compound 0.0316 µM
[22] = second compound 10 µM, first compound 0.1 µM
[23] = second compound 10 µM, first compound 0.316 µM
[24] = second compound 10 µM, first compound 1 µM

C#Cc1c(F)ccc2cc(O)cc(-c3ncc4c(N5CC6CCC(C5)N6)nc(OCC56CCCN5CC(F)C6)nc4c3F)c12 (stereo unspecified) + Cc1c(S(C)(=O)=O)c(-c2cc(F)cc(N3CCN(c4ccc(NS(=O)(=O)c5ccc(NC(CCN6CCC(C(=O)OCCCP(=O)(O)O)CC6)CSc6ccccc6)c(S(=O)(=O)C(F)(F)F)c5)cc4)CC3)c2)c(-c2ccc(Cl)cc2)n1C(C)C
> 10 µM: IC50 (second compound 0.0316 µM) | IC50 (second compound 0.1 µM) | IC50 (second compound 0.316 µM) | IC50 (second compound 1 µM) | IC50 (second compound 3.16 µM) | IC50 (second compound 10 µM)
inactive: viability, T/C [1] 93.6% | viability, T/C [2] 101% | viability, T/C [3] 89.2% | viability, T/C [4] 99.9% | viability, T/C (second compound 0.0316 µM, first compound 3.16 µM) 102% | viability, T/C (second compound 0.0316 µM, first compound 10 µM) 99.3% | viability, T/C [5] 92.4% | viability, T/C [6] 92.6% | viability, T/C [7] 90.6% | viability, T/C [8] 99.4% | viability, T/C (second compound 0.1 µM, first compound 3.16 µM) 101% | viability, T/C (second compound 0.1 µM, first compound 10 µM) 90.8% | viability, T/C [9] 93.8% | viability, T/C [10] 85.2% | viability, T/C [11] 91% | viability, T/C [12] 102% | viability, T/C (second compound 0.316 µM, first compound 3.16 µM) 99.5% | viability, T/C (second compound 0.316 µM, first compound 10 µM) 87% | viability, T/C [13] 92.7% | viability, T/C [14] 86.6% | viability, T/C [15] 88.2% | viability, T/C [16] 96.9% | viability, T/C (second compound 1 µM, first compound 3.16 µM) 96.1% | viability, T/C (second compound 1 µM, first compound 10 µM) 87% | viability, T/C [17] 83.9% | viability, T/C [18] 84.5% | viability, T/C [19] 88.8% | viability, T/C [20] 92.3% | viability, T/C (second compound 3.16 µM, first compound 3.16 µM) 85.8% | viability, T/C (second compound 3.16 µM, first compound 10 µM) 84.1% | viability, T/C [21] 78.2% | viability, T/C [22] 76.9% | viability, T/C [23] 81.1% | viability, T/C [24] 97.5% | viability, T/C (second compound 10 µM, first compound 3.16 µM) 75.8% | viability, T/C (second compound 10 µM, first compound 10 µM) 68.3%

CNC(C)C(=O)NC1CN(S(=O)(=O)c2cccc(S(=O)(=O)N3CCC4CCC(C(=O)NC(c5ccccc5)c5ccccc5)N4C(=O)C(NC(=O)C(C)NC)C3)c2)CCC2CCC(C(=O)NC(c3ccccc3)c3ccccc3)N2C1=O (stereo unspecified) + Cc1c(S(C)(=O)=O)c(-c2cc(F)cc(N3CCN(c4ccc(NS(=O)(=O)c5ccc(NC(CCN6CCC(C(=O)OCCCP(=O)(O)O)CC6)CSc6ccccc6)c(S(=O)(=O)C(F)(F)F)c5)cc4)CC3)c2)c(-c2ccc(Cl)cc2)n1C(C)C
inactive: viability, T/C (second compound 0.0316 µM, first compound 0.00316 µM) 94.8% | viability, T/C (second compound 0.0316 µM, first compound 0.01 µM) 97.2% | viability, T/C [1] 95.6% | viability, T/C [2] 93.3% | viability, T/C [3] 98.4% | viability, T/C [4] 103% | viability, T/C (second compound 0.1 µM, first compound 0.00316 µM) 101% | viability, T/C (second compound 0.1 µM, first compound 0.01 µM) 99.9% | viability, T/C [5] 98.4% | viability, T/C [6] 97.9% | viability, T/C [7] 95.7% | viability, T/C [8] 92.8% | viability, T/C (second compound 0.316 µM, first compound 0.00316 µM) 96.4% | viability, T/C (second compound 0.316 µM, first compound 0.01 µM) 91.8% | viability, T/C [9] 89% | viability, T/C [10] 99.3% | viability, T/C [11] 96.6% | viability, T/C [12] 85.8% | viability, T/C (second compound 1 µM, first compound 0.00316 µM) 96.6% | viability, T/C (second compound 1 µM, first compound 0.01 µM) 90.8% | viability, T/C [13] 89.8% | viability, T/C [14] 90.5% | viability, T/C [15] 88.9% | viability, T/C [16] 101% | viability, T/C (second compound 3.16 µM, first compound 0.00316 µM) 98.5% | viability, T/C (second compound 3.16 µM, first compound 0.01 µM) 88.1% | viability, T/C [17] 84.5% | viability, T/C [18] 85.5% | viability, T/C [19] 89.9% | viability, T/C [20] 82% | viability, T/C (second compound 10 µM, first compound 0.00316 µM) 94.7% | viability, T/C (second compound 10 µM, first compound 0.01 µM) 83.9% | viability, T/C [21] 74.6% | viability, T/C [22] 72.5% | viability, T/C [23] 85.7% | viability, T/C [24] 71.1%
> 1 µM: IC50 (second compound 0.0316 µM) | IC50 (second compound 0.1 µM) | IC50 (second compound 0.316 µM) | IC50 (second compound 1 µM) | IC50 (second compound 3.16 µM) | IC50 (second compound 10 µM)

Cc1nc(N2CCC3(CC2)COC(C)C3N)c(CO)nc1Sc1ccnc(N)c1Cl (stereo unspecified) + Cc1c(S(C)(=O)=O)c(-c2cc(F)cc(N3CCN(c4ccc(NS(=O)(=O)c5ccc(NC(CCN6CCC(C(=O)OCCCP(=O)(O)O)CC6)CSc6ccccc6)c(S(=O)(=O)C(F)(F)F)c5)cc4)CC3)c2)c(-c2ccc(Cl)cc2)n1C(C)C
inactive: viability, T/C (second compound 0.0316 µM, first compound 0.00949 µM) 93.6% | viability, T/C (second compound 0.0316 µM, first compound 0.03 µM) 99.6% | viability, T/C (second compound 0.0316 µM, first compound 0.0949 µM) 91.7% | viability, T/C (second compound 0.0316 µM, first compound 0.3 µM) 98.8% | viability, T/C (second compound 0.0316 µM, first compound 0.949 µM) 110% | viability, T/C (second compound 0.0316 µM, first compound 3 µM) 102% | viability, T/C (second compound 0.1 µM, first compound 0.00949 µM) 96% | viability, T/C (second compound 0.1 µM, first compound 0.03 µM) 94.8% | viability, T/C (second compound 0.1 µM, first compound 0.0949 µM) 97.3% | viability, T/C (second compound 0.1 µM, first compound 0.3 µM) 103% | viability, T/C (second compound 0.1 µM, first compound 0.949 µM) 100% | viability, T/C (second compound 0.1 µM, first compound 3 µM) 93.7% | viability, T/C (second compound 0.316 µM, first compound 0.00949 µM) 91.3% | viability, T/C (second compound 0.316 µM, first compound 0.03 µM) 88.2% | viability, T/C (second compound 0.316 µM, first compound 0.0949 µM) 98.9% | viability, T/C (second compound 0.316 µM, first compound 0.3 µM) 97.5% | viability, T/C (second compound 0.316 µM, first compound 0.949 µM) 103% | viability, T/C (second compound 0.316 µM, first compound 3 µM) 92.3% | viability, T/C (second compound 1 µM, first compound 0.00949 µM) 92.2% | viability, T/C (second compound 1 µM, first compound 0.03 µM) 95.7% | viability, T/C (second compound 1 µM, first compound 0.0949 µM) 93.2% | viability, T/C (second compound 1 µM, first compound 0.3 µM) 99.9% | viability, T/C (second compound 1 µM, first compound 0.949 µM) 98.7% | viability, T/C (second compound 1 µM, first compound 3 µM) 91% | viability, T/C (second compound 3.16 µM, first compound 0.00949 µM) 95.3% | viability, T/C (second compound 3.16 µM, first compound 0.03 µM) 91.2% | viability, T/C (second compound 3.16 µM, first compound 0.0949 µM) 89% | viability, T/C (second compound 3.16 µM, first compound 0.3 µM) 91.4% | viability, T/C (second compound 3.16 µM, first compound 0.949 µM) 95.5% | viability, T/C (second compound 3.16 µM, first compound 3 µM) 89.3% | viability, T/C (second compound 10 µM, first compound 0.00949 µM) 84% | viability, T/C (second compound 10 µM, first compound 0.03 µM) 82.8% | viability, T/C (second compound 10 µM, first compound 0.0949 µM) 94.8% | viability, T/C (second compound 10 µM, first compound 0.3 µM) 87.2% | viability, T/C (second compound 10 µM, first compound 0.949 µM) 95.8% | viability, T/C (second compound 10 µM, first compound 3 µM) 78.5%
> 3 µM: IC50 (second compound 0.0316 µM) | IC50 (second compound 0.1 µM) | IC50 (second compound 0.316 µM) | IC50 (second compound 1 µM) | IC50 (second compound 3.16 µM) | IC50 (second compound 10 µM)
